Entries after “also recorded” stand apart in the source; their conditions may differ.

Experiment [1] deals with quinone reductase (QR) activity in mouse hepatoma Hepa1c1c7 cells. Kind of experiment: Induction of quinone reductase (QR) activity. The class given is cell-based. Conditions: Hepa1c1c7 cells, 0.6, 1.7, 5, and 15 μM, 48 hours. As for the experimental part:
It has been known that quinone reductase (QR) activity is increased by increasing the expression of NAD(P)H:quinone oxidoreductase (NQO1) by Nrf2 activation (Proc Natl Acad Sci USA. 101, 10446-51 (2004)). Accordingly, isohumulones were allowed to act on mouse hepatoma Hepa1c1c7 cells (available from Dainippon Pharmaceutical Co., Ltd.) to examine whether the QR activity was induced.
The QR activity was measured in accordance with the method described in Analytical Biochemistry 169, 328-336 (1988).
A mouse hepatoma cell line Hepa1c1c7 was seeded on a 96-well plate (7-10×10^3 cells/well), 50 μl each of an α-MEM medium (Invitrogen) supplemented with 10% fetal bovine serum (HyClone) and penicillin-streptomycin (100 units/ml and 100 μg/ml, respectively; Sigma) was added, and the plate was incubated at […] in an atmosphere of 5% CO2 overnight. Next, the culture medium was replaced with a medium containing isomerized hop extract individually at a concentration of 1.9, 5.6, 16.7, or 50 μg/ml, or with a medium containing humulone (H), cohumulone (cH), adhumulone (aH), isohumulone (IH), isohumulone (IcH), or isohumulone (IaH) individually at a concentration of 0.6, 1.7, 5, and 15 μM and the plate was further incubated for 48 hours. Then, the cells in each well were broken using 0.08% digitonin and a 2 mM EDTA solution and absorption at 610 nm was measured by a menadione-formazan system using a microplate reader (Power Wave 200, Bio-Tek Instruments).
The QR inducing activity was calculated as a relative activity setting the activity of cells without addition to be 1 (n=3, mean±standard variation). Sulforaphane (Sul, available from Sigma) was used as a positive control.

The test system of experiment [2] is glutathione S-transferase pi2 (GSTP2). Briefly: Expression of genes controlled by Nrf2 in RAW264.7: GSTP2. The class given is cell-based, mouse. Conditions: RAW264.7, 3 μM, positive control. As for the experimental part:
(§1) A mouse macrophage cell line RAW264.7 was seeded on a φ60 mm dish (9×10^5 cells), 2 ml of a D-MEM medium (Invitrogen) supplemented with 10% fetal bovine serum (HyClone) and penicillin-streptomycin (100 units/ml and 100 μg/ml, respectively; Sigma) was added, and the dish was incubated at 37° C. in an atmosphere of 5% CO2 for 2 days. The medium was replaced with a fresh medium containing individual samples and incubation was continued for another 20 hours. Then, the total RNA was prepared using TRIzol (Invitrogen) and purified using a RNeasy Mini kit (Qiagen) and an RNase-free DNase set (Qiagen). Further, cDNA was synthesized from 5 μg of the purified total RNA using a Thermo Script RT-PCR system (Invitrogen), and the amount of mRNA expression of various genes was determined using a FastStart DNA Master SYBR Green I kit (Roche) and a Light Cycler (Roche).
(§2) The amount of expression of the various genes was corrected by the amount of expression of the housekeeping gene PO and calculated as a relative expression level (n=2, mean±standard deviation). […]

For experiment [3], the system named is mouse macrophage cell line RAW264.7. Kind of experiment: Amount of intracellular glutathione. The class given is cell-based. Conditions: RAW264.7, 3 μM, positive control. As to the method:
A mouse macrophage cell line RAW264.7 was seeded on a φ60 mm dish (7×10^5 cells), 2 ml of a D-MEM medium (Invitrogen) supplemented with 10% fetal bovine serum (HyClone) and penicillin-streptomycin (100 units/ml and 100 μg/ml, respectively; Sigma) was added, and the dish was incubated at 37° C. in an atmosphere of 5% CO2 for 2 days. The medium was replaced with a fresh medium containing individual samples and incubation was continued for another 20 hours. The samples added were isohumulone (IH(F)) and isohumulone (IcH(G)) at a concentration of 25 μM. The cells were recovered, broken by ultrasonication, and centrifuged to obtain the supernatant, and the amount of the total intracellular glutathione was measured using a glutathione assay kit (Cayman Chemical) (n=2, mean±standard deviation). As a positive control, 15dPGJ2 (Cayman Chemical) was used.

In experiment [4] the test system is heme oxygenase 1 (HO1). Kind of experiment: Expression of genes controlled by Nrf2 in RAW264.7: HO1. The class given is cell-based, mouse. The conditions noted are these: RAW264.7, 3 μM, positive control. As for the experimental part:
as §1, §2

Experiment [5] concerns CD36. Kind of experiment: Expression of genes controlled by Nrf2 in RAW264.7: CD36. The class given is cell-based, mouse. The conditions noted are these: RAW264.7, 3 μM, positive control. As to the method:
as §1, §2

Experiment [6] has as its system mouse macrophage cell line RAW264.7. Briefly: Suppressive action on cell death by hydrogen peroxide. The class given is cell-based. The conditions noted are these: RAW264.7, 3 μM, positive control. As to the method: A mouse macrophage cell line RAW264.7 (6×10^4 cells/well) was incubated on a 96-well plate in 100 μl of a D-MEM medium (Invitrogen) containing individual samples, 10% fetal bovine serum (HyClone), and penicillin-streptomycin (100 units/ml and 100 μg/ml, respectively; Sigma) at 37° C. in an atmosphere of 5% CO2 overnight. The samples added were isohumulone (IH(F)) and isohumulone (IcH(G)) at a concentration of 25 μM. Hydrogen peroxide (Wako Pure Chemical Industries) was added hereto at a final concentration of 0.8 or 1.0 mM and incubation was continued for another 2 hours. Then, adsorption at 440 nm was measured using a microplate reader (Power Wave 200, Bio-Tek Instruments) with a cell growth reagent WST-1 (Roche Diagnostics). The cell survival rate for each sample was calculated by setting the value without hydrogen peroxide as 100% (n=2, mean±standard variation). As a positive control, 15dPGJ2 (Cayman Chemical) was used.

For experiment [7], the system named is TNF-α. Kind of experiment: Suppression of TNF-α production by macrophages (TPA and IFN-γ). The conditions noted are these: RAW264.7, TPA 400 nM and IFN-γ 10 units/ml, positive control. The class given is cell-based, mouse. As for the experimental part:
A mouse macrophage cell line RAW264.7 (4×10^4 cells/well) was seeded on a 96-well plate, […] of a D-MEM medium (Invitrogen) containing each sample, 10% fetal bovine serum (HyClone), and penicillin-streptomycin (100 units/ml and 100 μg/ml, respectively; Sigma) was added, and the plate was incubated at 37° C. in an atmosphere of 5% CO2 for 4 hours. Then 150 μl of a medium containing TPA (phorbol 12-tetradecanoate 13-acetate, Sigma), mouse IFN-γ (interferon-γ, eBioscience), and each sample was added and incubation was carried out for 24 hours. TPA and IFN-γ were added at a final concentration of 400 nM and 10 units/ml, respectively. As samples, isomerized hop extract was added at a concentration of 5, 10, 20, and 30 μ/ml and isohumulone (IH(F)) and isohumulone (IcH(G)) were added individually at a concentration of 5, 10, 20, and 40 μM.
After completing incubation, the amount of TNF-α in the culture fluid was measured using a mouse TNF-α ELISA kit(eBioscience). The amount of TNF-α was expressed as a relative value by setting the value for the control as 100% (n=3, mean±standard variation). As a positive control, 15dPGJ2 (Cayman Chemical) was used.

For experiment [8], the system named is glutathione S-transferase mu1 (GSTM1). Kind of experiment: Expression of genes controlled by Nrf2 in RAW264.7: GSTM1. The class given is cell-based, mouse. Conditions: RAW264.7, 3 μM, positive control. As to the method:
as §1, §2

For experiment [9], the system named is glucose-6-phosphate dehydrogenase, X-linked (G6PDX). Briefly: Expression of genes controlled by Nrf2 in RAW264.7: G6PDX. The class given is cell-based, mouse. Conditions: RAW264.7, 3 μM, positive control. As to the method:
as §1, §2

Experiment [10] concerns NAD(P)H:quinone oxidoreductase (NQO1). Kind of experiment: Expression of genes controlled by Nrf2 in RAW264.7: NQO1. Conditions: RAW264.7, 3 μM, positive control. The class given is cell-based, mouse. As to the method: as §1, §2
Experiment [11] deals with glucose-6-phosphate dehydrogenase 2 (G6PD2). Kind of experiment: Expression of genes controlled by Nrf2 in RAW264.7: G6PD2. The class given is cell-based, mouse. The conditions noted are these: RAW264.7, 3 μM, positive control. As for the experimental part:
as §1, §2

The subject of experiment [12] is catalase 1 (CAT1). Briefly: Expression of genes controlled by Nrf2 in RAW264.7: CAT1. The class given is cell-based, mouse. The conditions noted are these: RAW264.7, 3 μM, positive control. As for the experimental part:
as §1, §2

Experiment [13] deals with thioredoxin reductase 1 (TXNRD1). Briefly: Expression of genes controlled by Nrf2 in RAW264.7: TXNRD1. The class given is cell-based, mouse. The conditions noted are these: RAW264.7, 3 μM, positive control. As for the experimental part:
as §1, §2

In experiment [14] the test system is glutamate cysteine ligase modifier subunit (GCLM). Kind of experiment: Expression of genes controlled by Nrf2 in RAW264.7: GCLM. The class given is cell-based, mouse. Conditions: RAW264.7, 3 μM, positive control. As to the method:
as §1, §2

The test system of experiment [15] is ICAM-1. Kind of experiment: ICAM-1 expression in vascular endothelial cells (HAEC), TNF-α stimulation, flow cytometry. The class given is cell-based, human. The conditions noted are these: TNF-α 1.25 ng/ml. As for the experimental part: Normal human aorta endothelial cells (HAEC, available from Cambrex) were cultured in a φ100 mm dish using 10 ml of endothelial cell medium kit-2 (Takara Shuzo) at 37° C. in an atmosphere of 5% CO2. Here, 30 μg/ml isomerized hop extract, 10 μM sulforaphane (Sul), or 10 mM N-acetyl cysteine (NAC) was allowed to act overnight. Next, after stimulating with the addition of human TNF-α (ProSpec-Tany TechnoGene) at a final concentration of 1.25 ng/ml), the cells were detached using a reagent for subculturing (Takara Shuzo) and flow cytometry analysis was carried out. Here, biotin anti-human ICAM antibody or biotin anti-human VCAM antibody (available from eBioscience) was used as a primary antibody and PE conjugated streptavidin (available from eBioscience) was used as a secondary antibody. A flow cytometer used was a FACSort analyzer (Becton Dickinson).
In general terms: Flow cytometry measures light scatter and fluorescence of single cells or particles in a stream.

`CC(C)=CCC1=C(O)C(O)(CC=C(C)C)C(=O)C(C(=O)C(C)C)=C1O` (stereo not drawn) [cohumulone, reference compound]: in experiment [1], the QR inducing activity result is “no clear change”.
`CCCCC/C=C/C=C1/C(=O)C=C[C@@H]1C/C=C\CCCC(=O)O` [15dPGJ2, 15-deoxy-D12,14-prostaglandin J2, reference compound]: in experiment [2], the “expression of GSTP2” value is “augmented the expression”. Also, the “amount of the total intracellular glutathione” value in experiment [3] is given as “Increased the amount of the total intracellular glutathione”. In addition, the “expression of HO1” value in experiment [4] is “augmented the expression”. In addition, the “expression of CD36” value in experiment [5] is “augmented the expression”. Moreover, the “cell death by hydrogen peroxide (cell survival rate)” value in experiment [6] (hydrogen peroxide 0.8 mM) and in [6] (hydrogen peroxide 1.0 mM) was “suppressed cell death” in each case. The TNF-α production result in [7] is recorded as “concentration-dependently suppressed”. Moreover, in [8], the “expression of GSTM1” value is “augmented the expression”. The “expression of G6PDX” value in experiment [9] is reported as “augmented the expression”. Further, the “expression of NQO1” value in experiment [10] is recorded as “augmented the expression”. Further, the “expression of G6PD2” value in experiment [11] is recorded as “augmented the expression”. Further, in [12], the “expression of CAT1” value was “augmented the expression”. For the same compound, in [13], the “expression of TRNRD1” value is listed as “augmented the expression”. Further, in experiment [14], the “expression of GCLM” value is “augmented the expression”.
Take `C[S+]([O-])CCCCN=C=S` (stereo not drawn) [sulforaphane]: the “expression of ICAM-1” value in [15] (10 μM overnight) is “Such changes are also recognized”.
Turning to `CCC(C)C(=O)C1=C(O)C(O)(C(=O)CC=C(C)C)C(CC=C(C)C)C1=O` (stereo not drawn) [IaH], the QR inducing activity result in experiment [1] is “Concentration-dependent QR inducing activity”.
For the compound `CC(C)=CCC(=O)C1(O)C(O)=C(C(=O)CC(C)C)C(=O)C1CC=C(C)C` (stereo not drawn) [IH (H), isohumulone], in [1], the QR inducing activity entry is “activity was higher in isohumulones having a higher trans form content”.
On the same count and under the same terms, with `CC(C)=CCC(=O)C1(O)C(O)=C(C(=O)CC(C)C)C(=O)C1CC=C(C)C` (stereo not drawn) [IH (E), isohumulone] the entry was “activity was higher in isohumulones having a higher trans form content”.
On to `CCC(C)C(=O)C1=C(O)C(CC=C(C)C)=C(O)C(O)(CC=C(C)C)C1=O` (stereo not drawn) [adhumulone, reference compound], for which the QR inducing activity entry in experiment [1] is listed as “no clear change”.
For `CC(C)=CCC(=O)C1(O)C(O)=C(C(=O)C(C)C)C(=O)C1CC=C(C)C` (stereo not drawn) [IcH], the QR inducing activity result in experiment [1] is reported as “higher activity than isohumulone (IaH)”; in [1] (listed as ICH), “Concentration-dependent QR inducing activity”.
As to `CC(C)=CCC(=O)C1(O)C(O)=C(C(=O)CC(C)C)C(=O)C1CC=C(C)C` (stereo not drawn) [IH, isohumulone], in experiment [1], the QR inducing activity entry is “Concentration-dependent QR inducing activity; also recorded: higher activity than isohumulone (IaH)”.
With `CC(=O)N[C@@H](CS)C(=O)O` [N-acetyl cysteine], in experiment [15] (10 mM overnight), the “expression of ICAM-1” value is “Such changes are also recognized”.

The record behind these values is US20070248705A1, “Agents for Activating the Transcription Factor Nrf2 and Foods Having Such Function” (KIRIN BEER KABUSHIKI KAISHA, priority 2004, published 2007).
